This is an account of results in US12325681B2, “Inhibitors of nitric oxide synthases (NOS), pharmaceutical products thereof, and methods thereof” (Gacter Inc., priority 2022, dated 2025).

Assay [1] deals with T1, iNOS (Homo sapiens, UniProt P35228). In words: abcam NOS Inhibitor Screening Kit, IC50 (fluorescence). The class given is biochemical. On the set-up: IC50; IC50. The conditions noted are these: abcam NOS Inhibitor Screening Kit. On the procedure: (§1) The IC50 of some compounds of the invention was determined using the abcam NOS Inhibitor Screening Kit. The procedure includes the following steps: (1) Dissolved a test compound to 10 mM in DMSO; (2) Diluted the test compound to 1 mM in NOS Assay Buffer; (3) Diluted 1 mM of the test compound stocks to 200 μM, 50 μM, 12.5 μM, 3.125 μM, 0.781 μM, and 0.195 μM in NOS Assay Buffer; (4) Diluted 1 mM DPI Control to 50.0 μM, 12.5 μM, 3.125 μM, 0.781 μM, 0.195 μM, and 0.0488 μM in NOS Assay Buffer; (5) Diluted NOS enzyme with 400 μL of NOS Assay Buffer; (6) Combined Diluted NOS Enzyme with 1.6 mL of NOS Assay buffer then transferred 20 μL of enzyme solution to all wells of 96-well Fluorescence plate except background wells. Added 20 μL of NOS Assay buffer to background wells. (7) Transferred 10 uL of each test compound dilution to the enzyme buffer mix according to the plate map (see addendum for plate map and raw data values). (8) Incubated 15 minutes at room temperature. (9) Added 11 μL of NOS reaction mix (according to manufacturer's protocol) to each well, mixed, and incubated at 37° C. for 1 hour. (10) Added 110 μL of NOS Assay Buffer to each well followed by 5 μL of Enhancer to each well, mixed, and incubated 10 minutes at room temperature; (11) Added 10 μL of Probe to each well, mixed, and incubated 10 minutes at room temperature; and (12) Added 5 μL of NaOH to each well, mixed, and incubated 10 minutes at room temperature. Measure Fluorescence at 360 nm excitation/450 nm emission.

Assay [2] deals with T1, iNOS. The assay is described as above. On the set-up: Fold (GT-xxxx)/AZ 6b. The conditions noted are these: ratio of IC50 to AZ 6b IC50 (0.0488 μM). It is filed as biochemical. How it is done: as §1

Usually IC50 stands for the concentration at which inhibition is half-maximal. Higher therefore signals a need for much substance.

Structures are written as SMILES. Where a name gives a salt, the structure may show the parent alone.

Regarding `Cc1ccc(C#N)c(O[C@H](CCNCC2CC2)c2ccccc2)n1` [GT-5031, (R)-2-(3-((cyclopropylmethyl)amino)-1-phenylpropoxy)-6-methylnicotinonitrile], half-maximal inhibition against iNOS [1] (Table C-1) (IC50) required 4.54 µM.

Turning to `Cl.N#Cc1ccc(Cl)cc1CN(CCN)c1ccccc1` [GT-7003, 2-(((2-aminoethyl)(phenyl)amino)methyl)-4-chlorobenzonitrile hydrochloride], the IC50 at iNOS [1] (Table C-1) and on iNOS [1] (Table C-2) was 0.064 µM in each case. Also, on iNOS [2], the “Fold (GT-xxxx)/AZ 6b” value was determined as 1.31.

With `NCCN(Cc1cc(Cl)ccc1Br)c1ccccc1` [GT-7006, N1-(2-bromo-5-chlorobenzyl)-N1-phenylethane-1,2-diamine], at iNOS [1] (Table C-1), the IC50 was determined as 157 µM.

Regarding `N#Cc1ccc(Cl)cc1OC(CCN)c1ccnc(N)c1` (stereo not shown) [GT-6064, 2-(3-amino-1-(2-aminopyridin-4-yl)propoxy)-4-chlorobenzonitrile], the 50% inhibitory concentration (IC50) against iNOS [1] (Table C-1) and against iNOS [1] (Table C-2) was 0.0285 µM each time. The “Fold (GT-xxxx)/AZ 6b” value on iNOS [2] came to 0.58.

As to `Cc1ccc(C#N)c(O[C@H](CCNCCN(C)C)c2ccccc2)n1` [GT-5019, (R)-2-(3-((2-(dimethylamino)ethyl)amino)-1-phenylpropoxy)-6-methyl nicotinonitrile], the concentration for half-maximal inhibition (IC50) against iNOS [1] (Table C-1) amounted to 9.62 µM.

The molecule `Cc1ccc(C#N)c(O[C@H](CCNCCCO)c2ccccc2)n1` [GT-5015] gave a concentration for half-maximal inhibition (IC50) on iNOS [1] (Table C-1) of 1.74 µM.

On iNOS [1] (Table C-1), `Cc1ccc(C#N)c(O[C@H](CCNC[C@H](O)CO)c2ccccc2)n1` [GT-5024, 2-((R)-3-(((S)-2,3-dihydroxypropyl)amino)-1-phenylpropoxy)-6-methylnicotinonitrile] gave an IC50 of 2.34 µM. The IC50 values of the last two molecules are within 1.5-fold of each other.

`N#Cc1ccc(Cl)cc1CN(CCNCC1CC1)c1ccccc1` [GT-7020, 4-chloro-2-(((2-((cyclopropylmethyl)amino)ethyl)(phenyl)amino)methyl) benzonitrile] had a concentration for half-maximal inhibition (IC50) on iNOS [1] (Table C-1) of 15.5 µM.

`Cc1ccc(C#N)c(O[C@H](CCNCCO)c2ccccc2)n1` [GT-5014, (R)-2-(3-((2-hydroxyethyl)amino)-1-phenylpropoxy)-6-methylnicotinonitrile] gave an IC50 on iNOS [1] (Table C-1) of 2.17 µM.

As to `N#Cc1ccc(Cl)cc1CN(CCNC[C@@H](O)CO)c1ccccc1` [GT-7016, (R)-4-chloro-2-(((2-((2,3-dihydroxypropyl)amino)ethyl)(phenyl)amino)methyl)benzonitrile], on iNOS [1] (Table C-1), the IC50 is 8.52 µM.

As to `N#Cc1ccc(Cl)cc1OC(CCN1C(=O)c2ccccc2C1=O)c1ccn2ccnc2c1` (stereo not shown) [GT-6065, 4-chloro-2-(3-(1,3-dioxoisoindolin-2-yl)-1-(imidazo[1,2-a]pyridin-7-yl)propoxy)benzonitrile], the IC50 at iNOS [1] (Table C-1) and on iNOS [1] (Table C-2) was 0.0678 µM each time. For the same molecule, on iNOS [2], the “Fold (GT-xxxx)/AZ 6b” value is listed as 1.39.

Regarding `N#Cc1ccc(Cl)cc1C(=O)N(CCNCCO)c1ccccc1` [GT-7009, 5-chloro-2-cyano-N-(2-((2-hydroxyethyl)amino)ethyl)-N-phenylbenzamide], the IC50 at iNOS [1] (Table C-1) and against iNOS [1] (Table C-2) was 0.148 µM each time. On iNOS [2], the “Fold (GT-xxxx)/AZ 6b” value is 3.03.

At iNOS [1] (Table C-1), `Cc1ccc(C#N)c(O[C@H](CCN)c2ccccc2)n1` [GT-5001, (R)-2-(3-amino-1-phenylpropoxy)-6-methylnicotinonitrile] came in with an IC50 of 1.59 µM.

As for `CNCC[C@@H](Oc1nc(C(F)(F)F)ccc1C#N)c1ccccc1` [GT-5013, (R)-2-(3-(methylamino)-1-phenylpropoxy)-6-(trifluoromethyl) nicotinonitrile], the concentration for half-maximal inhibition (IC50) against iNOS [1] (Table C-1) was determined as 23.3 µM.

In turn, `N#Cc1ccc(Cl)cc1CN(CCN)c1ccccc1Cl` [GT-7004, 2-(((2-aminoethyl)(2-chlorophenyl)amino)methyl)-4-chlorobenzonitrile hydrochloride] yielded an IC50 on iNOS [1] (Table C-1) of 5.79 µM. This IC50 lies about 4-fold lower than the previous one.

As to `CNCC[C@@H](Oc1cc(Cl)cc2[nH]cnc12)c1ccccc1` [GT-6058, (R)-3-((6-chloro-1H-benzo[d]imidazol-4-yl)oxy)-N-methyl-3-phenylpropan-1-amine], the half-maximal inhibitory concentration (IC50) on iNOS [1] (Table C-1) and against iNOS [1] (Table C-2) was 0.457 µM in each case. The “Fold (GT-xxxx)/AZ 6b” value at iNOS [2] is on record as 9.36.

For `NCC[C@@H](Oc1cc(Cl)cc2[nH]cnc12)c1ccccc1` [GT-6041, (R)-3-((6-chloro-1H-benzo[d]imidazol-4-yl)oxy)-3-phenylpropan-1-amine], the 50% inhibitory concentration (IC50) at iNOS [1] (Table C-1) and against iNOS [1] (Table C-2) was 0.156 µM in each case. In addition, on iNOS [2], the “Fold (GT-xxxx)/AZ 6b” value was 3.20.

Turning to `N#Cc1ccc(Cl)cc1C(=O)N(CCNCCCO)c1ccccc1` [GT-7011, 5-chloro-2-cyano-N-(2-((3-hydroxypropyl)amino)ethyl)-N-phenylbenzamide], the IC50 against iNOS [1] (Table C-1) and at iNOS [1] (Table C-2) was 0.29 µM throughout. The “Fold (GT-xxxx)/AZ 6b” value on iNOS [2] came out at 5.94.

On to `NCCN(C(=O)c1cc(Cl)ccc1Br)c1ccccc1Cl` [GT-7007, N-(2-aminoethyl)-2-bromo-5-chloro-N-(2-chlorophenyl) benzamide], for which the IC50 on iNOS [1] (Table C-1) and against iNOS [1] (Table C-2) was 0.0955 µM in each case. At iNOS [2], the “Fold (GT-xxxx)/AZ 6b” value came to 1.96.

Regarding `Cc1ccc(C#N)c(O[C@H](CCNCCN2CCOCC2)c2ccccc2)n1` [GT-5020, (R)-6-methyl-2-(3-((2-morpholinoethyl)amino)-1-phenylpropoxy)nicotinonitrile], the midpoint of inhibition against iNOS [1] (Table C-1), the IC50, lay at 7.29 µM.

For `Cc1ccc(C#N)c(O[C@H](CCNC[C@@H](O)CO)c2ccccc2)n1` [GT-5025, 2-((R)-3-(((R)-2,3-dihydroxypropyl)amino)-1-phenylpropoxy)-6-methylnicotinonitrile], the IC50 on iNOS [1] (Table C-1) turned out to be 3.56 µM. Against the preceding molecule, the IC50 is about 2-fold lower.

On to `CNCC[C@@H](Oc1nc(C)ccc1Br)c1ccccc1` [GT-5012, (R)-3-((3-bromo-6-methylpyridin-2-yl)oxy)-N-methyl-3-phenylpropan-1-amine], for which half-maximal inhibition against iNOS [1] (Table C-1) (IC50) was put at 12600 µM.

Turning to `N#Cc1ccc(Cl)cc1CN(CCNCCO)c1ccccc1` [GT-7010, 4-chloro-2-(((2-((2-hydroxyethyl)amino)ethyl)(phenyl)amino)methyl) benzonitrile], the half-inhibitory concentration (IC50) against iNOS [1] (Table C-1) amounted to 9.18 µM.

As for `CNCC[C@@H](Oc1nc(C)ccc1C#N)c1ccccc1` [GT-5002, (R)-6-methyl-2-(3-(methylamino)-1-phenylpropoxy)nicotinonitrile], on iNOS [1] (Table C-1), it took 1.35 µM to reach half-maximal inhibition (IC50). This IC50 lies about 6.8-fold lower than the previous one.

On iNOS [1] (Table C-1), `N#Cc1ccc(Cl)cc1C(=O)N(CCNC(CO)CO)c1ccccc1` [GT-7017, 5-chloro-2-cyano-N-(2-((1,3-dihydroxypropan-2-yl)amino)ethyl)-N-phenylbenzamide] had an IC50 of 3.66 µM. Against the preceding molecule, the IC50 is about 2.7-fold higher.

On to `N#Cc1ccc(Cl)cc1CN(CCNC1CCC(O)CC1)c1ccccc1` (single isomer, unassigned) [GT-7023, 4-chloro-2-(((2-((4-hydroxycyclohexyl)amino)ethyl)(phenyl)amino)methyl) benzonitrile], for which, on iNOS [1] (Table C-1), it took 10.5 µM to reach half-maximal inhibition (IC50).

On to `NCCN(Cc1cc(Cl)ccc1Br)c1ccccc1Cl` [GT-7008, N1-(2-bromo-5-chlorobenzyl)-N1-(2-chlorophenyl)ethane-1,2-diamine hydrochloride], for which 5.56 µM corresponded to half-maximal inhibition on iNOS [1] (Table C-1) (IC50).

Turning to `CNCC[C@@H](Oc1cc(Cl)cc2[nH]ncc12)c1ccccc1` [GT-6059, (R)-3-((6-chloro-1H-indazol-4-yl)oxy)-N-methyl-3-phenylpropan-1-amine], the IC50 against iNOS [1] (Table C-1) and against iNOS [1] (Table C-2) was 0.252 µM each time. For the same molecule, on iNOS [2], the “Fold (GT-xxxx)/AZ 6b” value is 5.16.

Regarding `N#Cc1ccc(Cl)cc1C(=O)N(CCN)c1ccccc1Cl` [GT-7002, N-(2-aminoethyl)-5-chloro-N-(2-chlorophenyl)-2-cyanobenzamide], the IC50 on iNOS [1] (Table C-1) and on iNOS [1] (Table C-2) was 0.112 µM in each case. Besides, the “Fold (GT-xxxx)/AZ 6b” value on iNOS [2] came out at 2.30.

Molecule `Cc1ccc(C#N)c(O[C@H](CCNC(C)(C)C)c2ccccc2)n1` [GT-5018, (R)-2-(3-(tert-butylamino)-1-phenylpropoxy)-6-methylnicotinonitrile] had a 50% inhibitory concentration (IC50) against iNOS [1] (Table C-1) of 5.04 µM.

The molecule `Cc1ccc(C#N)c(O[C@H](CCN2CC[C@@H](O)C2)c2ccccc2)n1` [GT-5017, 2-((R)-3-((R)-3-hydroxypyrrolidin-1-yl)-1-phenylpropoxy)-6-methyl nicotinonitrile] gave an IC50 against iNOS [1] (Table C-1) of 6.75 µM.

The molecule `Cc1ccc(C#N)c(O[C@H](CCNCCc2c[nH]cn2)c2ccccc2)n1` [GT-5023, (R)-2-(3-((2-(1H-imidazol-4-yl)ethyl)amino)-1-phenylpropoxy)-6-methylnicotinonitrile] gave an IC50 against iNOS [1] (Table C-1) of 5.43 µM.

At iNOS [1] (Table C-1), `N#Cc1ccc(Cl)cc1CN(CCNC(CO)CO)c1ccccc1` [GT-7018, 4-chloro-2-(((2-((1,3-dihydroxypropan-2-yl)amino)ethyl)(phenyl)amino)methyl)benzonitrile] showed a 50% inhibitory concentration (IC50) of 20.3 µM.

Consider `N#Cc1ccc(Cl)cc1CN(CCNC1CCC(O)CC1)c1ccccc1` (single isomer, unassigned) [GT-7024, 4-chloro-2-(((2-((4-hydroxycyclohexyl)amino)ethyl)(phenyl)amino)methyl) benzonitrile], for which the IC50 against iNOS [1] (Table C-1) is 14.4 µM. This IC50 and that of the molecule before are within 1.5-fold of each other.

Consider `Cc1ccc(C#N)c(O[C@H](CCN2CC[C@H](O)C2)c2ccccc2)n1` [GT-5016, 2-((R)-3-((S)-3-hydroxypyrrolidin-1-yl)-1-phenylpropoxy)-6-methyl nicotinonitrile], for which the concentration for half-maximal inhibition (IC50) against iNOS [1] (Table C-1) was 4.04 µM.
